# Data taken from US20240165154A1, “METHODS AND AGENTS FOR MODULATING ADOPTIVE IMMUNOTHERAPY” (The Regents of the University of California, priority 2021, published 2024).
# Assays:
# [1] = system: B16 melanoma cell line constitutively expressing GFP; assay: B16 melanoma proliferation/survival assay in HG, LG, LG+C (GFP positivity as proxy for viability); assay type: cell-based; conditions: starvation (low glucose, LG) conditions + cellobiose (+C)
# Source text: The protocol for proliferation of the B16 melanoma tumor cell line (FIG. 19) constitutively expressing GFP is identical to the other proliferation assays described above, minus the prior transfection with plasmids.
# In order to study the effects of cellobiose on tumors, the high glucose (HG), low glucose (LG), and low glucose+cellobiose (LG+C) in vitro studies of FIGS. 18A-18B were repeated using a B16 melanoma cell line constitutively expressing GFP.
# [2] = after intravenous infusion; cited from earlier work
# [3] = system: CD8+ T cells from spleens of BL/6J mice; assay: T cell proliferation assay (CELLTRACE Violet) of MSCV-transduced CD8+ T cells in metabolic conditions; assay type: cell-based, mouse; conditions: 48 hr
# Method: Spleens from BL/6J mice (Jackson Laboratory #000664; https://www.jax.org/strain/000664) were harvested, minced, resuspended in fluorescence-activated cell sorting (FACS) buffer (phosphate buffered saline (PBS)+2% fetal bovine serum (FBS)+1 mM ethylene diamine tetra-acetic acid (EDTA) (THERMOFISHER SCIENTIFIC™, #15575020)), and strained through a 40-micron nylon mesh filter (Millipore Sigma, CLS431750-50EA). The cellular suspension was then centrifuged at 600× g for 10 minutes before isolating CD8+ T cells using standard protocol from an immunomagnetic separation kit (EASYSEP™ Mouse CD8+ T Cell Isolation Kit, STEMCELL™ Technologies, #19853).
# For activation, 5×10^6 stained CD8+ T cells were resuspended in 1 mL of complete T cell medium (RPMI 1640+10% fetal bovine serum (FBS)+1 mM Na Pyruvate+10 mM 4-(2-hydroxyethyl)-1-piperazineethanesulfonic acid (HEPES)+1% penicillin/streptomycin (pen/strep)+0.1% beta-mercaptoethanol) supplemented with 2 ug/mL anti-CD28 clone 37.51 (BIOXCELL™, #BE0015-1) and plated into one well of a 12 well plate coated with 10 micrograms/mL (μg/mL) of anti-CD3e clone 2C11 (BIOXCELL™, #BE0001-1). 24 hours later, plates were lightly spun down at 100× g for 2 minutes, before removing 800 ul of supernatant. 1 mL of T cell media containing concentrated virus was then overlaid, before centrifugation at 800×g for 1 hour at 32C (32° C.). […]
structure (smiles),measurement,setting,value
O=C[C@H](O)[C@@H](O)[C@H](O[C@@H]1O[C@H](CO)[C@@H](O)[C@H](O)[C@H]1O)[C@H](O)CO [cellobiose],B16 melanoma tumor survival (GFP positivity as proxy for cell viability),[1],did not promote B16 melanoma tumor survival
same,excretion in the urine,[2],vast majority of cellobiose is excreted in the urine
same,T-cell proliferation (CELLTRACE VIOLET) of mCh+ GFP+ cells co-transduced with CDT-1 and GH1-1,[3]; low glucose + cellobiose (LG+C) vs low glucose,rescued T-cell proliferation
same,wild-type (WT) T-cell proliferation,[3]; low glucose environment when cellobiose was added,minor increase
